Experimental findings from ChEMBL document CHEMBL1145122, “Structure-based design of novel guanidine/benzamidine mimics: potent and orally bioavailable factor Xa inhibitors as novel anticoagulants” (J Med Chem, 2003) are described below.

What is called Ki is a dissociation constant, usually derived from enzyme kinetics or from competition with a known ligand. Read a high Ki as weaker binding. For orientation: pKa means the negative logarithm of the acid dissociation constant. Higher therefore signals a weaker acid or stronger base. One may read the Vd as the apparent volume that relates the amount in the body to the concentration in plasma or blood. Low readings indicate confinement near the circulation, high ones extensive tissue distribution. For orientation: bioavailability means dose-corrected exposure relative to a reference, in per cent. What is called half-life is the time in which the quantity being followed falls by half. A high value points to slow loss. Broadly, the clearance is the volume of plasma or blood freed of the substance per unit of time. In general, logP refers to the decadic logarithm of the partition coefficient of the neutral form, usually between octanol and water. Usually IC50 stands for the concentration that inhibits the measured activity by half. A high value points to weaker potency.

One series has as its target Coagulation factor X (Homo sapiens, UniProt P00742). Kind of series: Inhibitory activity against Coagulation factor X (FXa).
The target of the next series is Prothrombin (Homo sapiens, UniProt P00734). Put plainly: Inhibitory activity against Thrombin.
The nature of series [1]: physchem.
The next series has as its target Trypsin (Homo sapiens, UniProt P07477+P07478+P35030). Kind of series: Inhibition of Trypsin. It is filed as protein assay.
A short description of series [2]: in vivo. The conditions noted are these: dog.
Series [3] can be described thus: in vivo. As to conditions: dog, po.
Series [4] can be described thus: in vivo. As to conditions: dog, iv.
Series [5] can be described thus: in vivo. As to conditions: dog, po. This is another data set of the same source.
Series [6] can be described thus: in vivo. The conditions noted are these: dog. The source holds these as a separate data set.
Series [7] is described as follows: physchem. As to conditions: octanol/water.
Series [8] can be described thus: physchem. As to conditions: octanol/water. This is another data set of the same source.
Series [9] is filed under the species Oryctolagus cuniculus. Kind of series: Dose required for inhibition of thrombus formation in rabbit arterial-venous shunt antithrombosis model. It is filed as functional.
Series [10] is filed under the species Oryctolagus cuniculus. Kind of series: Concentration required for inhibition of thrombus formation in rabbit arterial-venous shunt antithrombosis model. It is filed as functional, organism-based.
Series [11] is described as follows: in vivo. As to conditions: dog, po. This is another data set of the same source.
Series [12] relates to plasma protein binding (Homo sapiens). Put plainly: Percentage binding to human plasma proteins.

Sequence of Coagulation factor X (P00742 41-179 limits assumed): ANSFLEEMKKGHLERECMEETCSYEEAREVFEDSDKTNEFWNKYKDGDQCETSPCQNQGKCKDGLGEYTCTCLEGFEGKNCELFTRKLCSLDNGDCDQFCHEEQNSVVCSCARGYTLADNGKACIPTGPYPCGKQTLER
Sequence of Coagulation factor X (P00742 235-488 limits assumed): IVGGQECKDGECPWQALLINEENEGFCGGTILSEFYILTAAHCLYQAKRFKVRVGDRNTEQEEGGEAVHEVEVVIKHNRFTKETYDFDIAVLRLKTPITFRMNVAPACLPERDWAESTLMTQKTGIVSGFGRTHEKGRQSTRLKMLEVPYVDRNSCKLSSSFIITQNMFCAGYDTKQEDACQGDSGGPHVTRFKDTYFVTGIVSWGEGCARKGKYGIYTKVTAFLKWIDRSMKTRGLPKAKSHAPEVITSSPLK

Turning to `Cc1cc(C(=O)Nc2ccc(-c3ccccc3S(N)(=O)=O)cc2)n(CCCCN)n1`, the Ki is 12 µM on Coagulation factor X and > 21 µM at Prothrombin. The pKa in the series “physchem [1]” was found to be 10.

Take `Cc1cc(C(=O)Nc2ccc(-c3ccccc3S(N)(=O)=O)cc2)n(-c2cccc(S(C)=N)c2)n1` (stereo unspecified): the Ki is 2.7 µM at Coagulation factor X and > 21 µM on Prothrombin.

As for `Cc1cc(C(=O)Nc2ccc(-c3ccccc3S(N)(=O)=O)cc2)n(-c2ccc3nc(N)nc(N)c3c2)n1`, the results for the Ki on Coagulation factor X, at Prothrombin and on Trypsin were 0.016 µM, > 21 µM and > 1.6 µM, respectively. Also, the pKa in “physchem [1]” came out at 8.1.

`Cc1cc(C(=O)Nc2ccc(-c3ccccc3S(N)(=O)=O)cc2)n(-c2cccc(C(=N)NO)c2)n1`: the figures for the Ki at Coagulation factor X, on Prothrombin and on Trypsin were 0.019 µM, > 21 µM and > 1.6 µM, respectively. In the series “physchem [1]”, this molecule came in with a pKa of 7.

Regarding `Cc1cc(C(=O)Nc2ccc(-c3ccccc3S(N)(=O)=O)cc2)n(-c2cccc(S(N)(=O)=O)c2)n1`, the results for the Ki on Coagulation factor X and on Prothrombin were 5 µM and > 21 µM, respectively.

On to `Cc1cc(C(=O)Nc2ccc(-c3ccccc3S(N)(=O)=O)cc2)n(-c2ccc3onc(N)c3c2)n1`, for which the results for the Ki at Coagulation factor X, at Prothrombin and at Trypsin were 0.0014 µM, > 21 µM and > 1.6 µM, respectively. Besides, the Vd in the series “in vivo [2]” is 0.7 L/kg. For the same molecule, the bioavailability in the series “in vivo [3]” was found to be 26%. The results for the half-life in “in vivo [4]” and in “in vivo [5]” were 2.8 h and 3.2 h, respectively. Besides, the clearance in the series “in vivo [6]” was 5 mL/min/kg. Also, the logP in “physchem [7]” was 2.3. In addition, in the series “physchem [1]”, the pKa is < 2.3.

Turning to `COc1ccc(-n2nc(C)cc2C(=O)Nc2ccc(-c3ccccc3S(N)(=O)=O)cc2)cc1`, the results for the Ki at Coagulation factor X, on Prothrombin and on Trypsin were 0.011 µM, > 21 µM and > 1.6 µM, respectively. The Vd in the series “in vivo [2]” was 0.52 L/kg. The same molecule came in with a bioavailability in the series “in vivo [3]” of 48%. Further, the half-life in the series “in vivo [4]” and in the series “in vivo [5]” was 4.5 h in each case. This molecule also showed a clearance in “in vivo [6]” of 1.5 mL/min/kg. In the series “physchem [8]”, this molecule gave a logP of 2.9. Besides, the pKa in “physchem [1]” was < 0.

Take `Cc1cc(C(=O)Nc2ccc(-c3ccccc3S(N)(=O)=O)cc2)n(-c2ccccc2)n1`: the Ki was 0.198 µM on Coagulation factor X, > 21 µM at Prothrombin and > 1.6 µM at Trypsin.

In the case of `Cc1cc(C(=O)Nc2ccc(-c3ccccc3S(N)(=O)=O)cc2)n(-c2cccc(CN)c2)n1`, at Prothrombin, the Ki was > 21 µM.

Regarding `Cc1cc(C(=O)Nc2ccc(-c3ccccc3S(N)(=O)=O)cc2)n(C2CCCNC2)n1` (stereo unspecified), the Ki on Prothrombin was > 21 µM. The molecule further gave a pKa in “physchem [1]” of 10.

Regarding `Cc1cc(C(=O)Nc2ccc(-c3ccccc3S(N)(=O)=O)cc2)n(-c2ccc3ccnc(N)c3c2)n1`, the Ki at Coagulation factor X is 0.00033 µM; on Prothrombin it was 6.5 µM; on Trypsin, 2.6 µM. The molecule also displayed an ID50 in the series listed under Oryctolagus cuniculus [9] of 1.2 µM/h/kg. The molecule further returned an IC50 in the series listed under Oryctolagus cuniculus [10] of 0.69 µM. In addition, the Vd in “in vivo [2]” worked out at 1.2 L/kg. The molecule further had a bioavailability in “in vivo [11]” of 13%. Also, the half-life in the series “in vivo [4]” is 3.4 h; in “in vivo [5]”, 4.4 h. In “in vivo [6]”, this molecule gave a clearance of 5.5 mL/min/kg. Moreover, the logP in “physchem [8]” amounted to 2.6. The pKa in “physchem [1]” turned out to be 6.7. The same molecule came in with a Binding in series [12] of 89%.

Turning to `Cc1cc(C(=O)Nc2ccc(-c3ccccc3S(N)(=O)=O)cc2)n(-c2ccc3ccncc3c2)n1`, the Ki was 0.37 µM at Coagulation factor X, > 21 µM at Prothrombin and > 1.6 µM at Trypsin. In the series “physchem [1]”, this molecule had a pKa of 5.4.

Take `Cc1cc(C(=O)Nc2ccc(-c3ccccc3S(N)(=O)=O)cc2)n(-c2cccc(Cl)c2)n1`: the Ki on Coagulation factor X is 0.037 µM; on Prothrombin, > 21 µM; at Trypsin, > 1.6 µM.

As to `Cc1cc(C(=O)Nc2ccc(-c3ccccc3S(N)(=O)=O)cc2)n(-c2cccc(C(N)=O)c2)n1`, the figures for the Ki at Prothrombin and at Trypsin were > 21 µM and > 1.6 µM, respectively. The bioavailability in the series “in vivo [3]” came to 46%. Moreover, the figures for the half-life in the series “in vivo [4]” and in “in vivo [5]” were 3.1 h and 3.9 h, respectively. The clearance in the series “in vivo [6]” was 4.67 mL/min/kg. For the same molecule, the logP in the series “physchem [8]” is 2.1. The pKa in the series “physchem [1]” was < 0.

On to `Cc1cc(C(=O)Nc2ccc(-c3ccccc3S(N)(=O)=O)cc2)n(-c2ccc3c(N)[nH]nc3c2)n1`, for which the Ki at Coagulation factor X was 2.8 µM; at Prothrombin, > 21 µM; at Trypsin, > 1.6 µM.

As to `Cc1cc(C(=O)Nc2ccc(-c3ccccc3S(N)(=O)=O)cc2)n(-c2cccc(C#N)c2)n1`, the Ki is 0.31 µM at Coagulation factor X and > 21 µM on Prothrombin.

Regarding `Cc1cc(C(=O)Nc2ccc(-c3ccccc3S(N)(=O)=O)cc2)n(-c2ccc3ncnc(N)c3c2)n1`, the figures for the Ki on Coagulation factor X, at Prothrombin and on Trypsin were 0.029 µM, > 21 µM and > 1.6 µM, respectively. In the series “physchem [1]”, this molecule displayed a pKa of 5.7.

In the case of `Cc1cc(C(=O)Nc2ccc(-c3ccccc3S(N)(=O)=O)cc2)n(-c2cccc(N)c2)n1`, the Ki is 0.063 µM on Coagulation factor X, > 21 µM at Prothrombin and > 1.6 µM on Trypsin. The pKa in “physchem [1]” was determined as 4.7.

With `Cc1cc(C(=O)Nc2ccc(-c3ccccc3S(N)(=O)=O)cc2)n(-c2ccc3[nH]nc(N)c3c2)n1`, the Ki is 0.029 µM at Coagulation factor X and > 21 µM on Prothrombin.

As for `Cc1cc(C(=O)Nc2ccc(-c3ccccc3S(N)(=O)=O)cc2)n(-c2ccccc2N)n1`, the Ki at Coagulation factor X is 0.6 µM; at Prothrombin, > 21 µM. In addition, in “physchem [1]”, the pKa worked out at 4.7.

For `Cc1cc(C(=O)Nc2ccc(-c3ccccc3S(N)(=O)=O)cc2)n(-c2cccc(B(O)O)c2)n1`, the Ki at Coagulation factor X was 0.061 µM; at Prothrombin, > 21 µM; at Trypsin, > 1.6 µM.

`Cc1cc(C(=O)Nc2ccc(-c3ccccc3S(N)(=O)=O)cc2)n(-c2ccc(N)cc2)n1`: the results for the Ki at Coagulation factor X and at Prothrombin were 3 µM and > 21 µM, respectively. Also, the pKa in “physchem [1]” stood at 4.7.

In the case of `Cc1cc(C(=O)Nc2ccc(-c3ccccc3S(N)(=O)=O)cc2)n(-c2ccc(N)nc2)n1`, the Ki is 1.3 µM at Coagulation factor X and > 2.1 µM at Prothrombin. This molecule also showed a pKa in the series “physchem [1]” of 7.
